Source: US11066405B2, “Bicyclic compounds and their use in the treatment of cancer” (Tempest Therapeutics, Inc., priority 2017, dated 2021)

The molecules below were run against T1, EP4 (Homo sapiens, UniProt P35408) (assay: EP4 Ca2+-flux assay (functional calcium flux assay, stably transfected HEK293 cells)). Conditions: HEK293 cells stably transfected with EP4; ligand PGE2 10 nM; luminescence readout.
T1 construct: host or cells: HEK293, stably transfected; also expresses a promiscuous G protein and a clytin variant
T1 sequence (P35408 whole entry): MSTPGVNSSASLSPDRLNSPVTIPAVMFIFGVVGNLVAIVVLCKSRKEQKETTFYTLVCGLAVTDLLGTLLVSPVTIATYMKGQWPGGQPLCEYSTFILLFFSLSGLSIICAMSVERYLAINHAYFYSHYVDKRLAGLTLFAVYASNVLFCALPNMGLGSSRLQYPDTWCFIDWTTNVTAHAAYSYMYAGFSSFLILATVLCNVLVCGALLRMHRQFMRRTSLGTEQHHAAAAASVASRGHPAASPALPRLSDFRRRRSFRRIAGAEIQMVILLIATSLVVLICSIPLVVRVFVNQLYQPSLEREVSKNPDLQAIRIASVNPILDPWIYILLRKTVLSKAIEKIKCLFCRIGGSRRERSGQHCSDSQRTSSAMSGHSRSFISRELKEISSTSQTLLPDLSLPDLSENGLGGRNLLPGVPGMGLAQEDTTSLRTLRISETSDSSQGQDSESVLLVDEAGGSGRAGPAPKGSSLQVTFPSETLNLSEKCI
Format: cell-based
Procedure: The compounds in the present disclosure were tested in a functional calcium flux assay using stably transfected HEK293 cells. Cells transfected with EP1, EP2, EP3 and EP4 were purchased from Eurofins Discovery Services (St. Charles, Mo.). Each receptor subtype has an additional promiscuous G protein added in order to couple to the calcium signaling pathway. The parental cell line used also expresses a novel variant of clytin, a calcium-activated photo-protein, to enable sensitive luminescent detection.
Cells were plated at 50,000 cells per well in black, clear bottom 96-well plates. The plated cells were allowed to sit at room temperature for 30 min prior to transferring to a humidified, 37° C., 5% CO2 incubator for 18-24 h. Assay buffer (HBSS with 20 mM HEPES) and loading buffer (assay buffer plus 10 μM Coelenterazine) were prepared on the day of the assay. Assays were performed by aspirating media from the assay plate and washing once with assay buffer, then replacing with loading buffer and allowing the cells to incubate for 1.5 h at room temperature. Compounds were prepared in assay buffer at a 3× final concentration in non-binding plates. Compounds were added to the cell plates and incubated for 30 min at room temperature. The prostanoid receptor ligand PGE2 was prepared at a 4× dilution ratio for a final concentration of 10 nM. Plates were run on a Flexstation™ using a 100 ms integration luminescence protocol for a total of 60 sec with ligand addition at 15 sec. Data were obtained from relative light units as measured by area under the curve.

| SMILES | IC50 [nM] |
| --- | --- |
| O=C(O)CC12CC(NC(=O)c3ccnc4ccn(Cc5ccc(C(F)(F)F)cc5)c34)(C1)C2 [Example 3, 2-(3-(1-(4-(trifluoromethyl)benzyl)-1H-pyrrolo[3,2-b]pyridine-7-carboxamido)bicyclo[1.1.11]pentan-1-yl)acetic Acid] | 160 |
| N#Cc1ccc(Cn2ccc3cccc(C(=O)NC45CC(CC(=O)O)(C4)C5)c32)cc1 [Example 1, 2-(3-(1-(4-cyanobenzyl)-1H-indole-7-carboxamido)bicyclo[1.1.1]pentan-1-yl) acetic Acid] | 13 |
| O=C(O)CC12CC(NC(=O)c3cccc4cnn(Cc5ccc(C(F)(F)F)cc5)c34)(C1)C2 [Example 6, 2-(3-(1-(4-(trifluoromethyl)benzyl)-1H-indazole-7-carboxamido)bicyclo[1.1.1]pentan-1-yl)acetic Acid] | 19 |
| O=C(CC12CC(NC(=O)c3cccc4ccn(Cc5ccc(C(F)(F)F)cc5)c34)(C1)C2)NS(=O)(=O)c1ccccc1 [Example 16, N-(3-(2-oxo-2-(phenylsulfonamido)ethyl)bicyclo[1.1.1]pentan-1-yl)-1-(4-(trifluoromethyl)benzyl)-1H-indole-7-carboxamide] | 140 |
| CC1(NC(=O)c2cccc3ccn(Cc4ccc(C(F)(F)F)cc4)c23)CC(CCC(=O)O)C1 (stereo not drawn) [Example 15, cis-3-(3-methyl-3-(1-(4-(trifluoromethyl)benzyl)-1H-indole-7-carboxamido)cyclobutyl)propanoic Acid] | 400 |
| O=C(O)C[C@]12C[C@](NC(=O)c3cccc4cnn(Cc5ccc(OC(F)(F)F)cc5)c34)(C1)C2 [Example 37, 2-(3-(1-(4-(trifluoromethoxy)benzyl)-1H-indazole-7-carboxamido)bicyclo[1.1.1]pentan-1-yl)acetic Acid] | 75 |
| O=C(NC1CC2(C1)CC(C(=O)O)C2)c1nccc2ccn(Cc3ccc(C(F)(F)F)cc3)c12 (racemic) [Example 11, rac-6-(1-(4-(trifluoromethyl)benzyl)-1H-pyrrolo[2,3-c]pyridine-7-carboxamido)spiro[3.3]heptane-2-carboxylic Acid] | 24 |
| O=C(NCC12CC(NC(=O)c3cccc4ccn(Cc5ccc(C(F)(F)F)cc5)c34)(C1)C2)NS(=O)(=O)c1ccccc1 [Example 17, N-(3-((3-(phenylsulfonyl)ureido)methyl)bicyclo[1.1.1]pentan-1-yl)-1-(4-(trifluoromethyl)benzyl)-1H-indole-7-carboxamide] | 130 |
| O=C(O)CC12CCC(NC(=O)c3cccc4ccn(Cc5ccc(C(F)(F)F)cc5)c34)(C1)C2 [Example 19, 2-(4-(1-(4-(trifluoromethyl)benzyl)-1H-indole-7-carboxamido)bicyclo[2.1.1]hexan-1-yl)acetic Acid] | 9.1 |
| O=C(NC1CC2(C1)CC(C(=O)O)C2)c1cccc2ncn(Cc3ccc(C(F)(F)F)cc3)c12 (racemic) [Example 13, rac-6-(1-(4-(trifluoromethyl)benzyl)-1H-benzo[d]imidazole-7-carboxamido) spiro[3.3]heptane-2-carboxylic Acid] | 32 |
| N#Cc1ccc(Cn2ccc3cccc(C(=O)NC4CC5(C4)CC(C(=O)O)C5)c32)cc1 (racemic) [Example 24, rac-6-(1-(4-cyanobenzyl)-1H-indole-7-carboxamido)spiro[3.3]heptane-2-carboxylic Acid] | 10 |
| O=C(O)CC12CC(NC(=O)c3nccc4ccn(Cc5ccc(C(F)(F)F)cc5)c34)(C1)C2 [Example 5, 2-(3-(1-(4-(trifluoromethyl)benzyl)-1H-pyrrolo[2,3-c]pyridine-7-carboxamido)bicyclo[1.1.1]pentan-1-yl)acetic Acid] | 930 |

These reach a lower IC50. Values come first.

| IC50 [nM] | SMILES |
| --- | --- |
| 0.22 | O=C(O)C[C@]12C[C@](NC(=O)c3cccc4ccn(Cc5ccc(-c6ccccc6)cc5)c34)(C1)C2 [Example 34, 2-(3-(1-([1,1′-biphenyl]-4-ylmethyl)-1H-indole-7-carboxamido)bicyclo[1.1.1]pentan-1-yl)acetic Acid] |
| 2 | [2H]C([2H])(c1ccc(C(F)(F)F)cc1)n1ccc2cccc(C(=O)NC34CC(CC(=O)O)(C3)C4)c21 [Example 7, 2-(3-(1-((4-(trifluoromethyl)phenyl)methyl-d2)-1H-indole-7-carboxamido)bicyclo[1.1.1]pentan-1-yl)acetic Acid] |
| 0.4 | O=C(NC1CC2(C1)CC(C(=O)O)C2)c1cccc2ccn(Cc3ccc(C(F)F)cc3)c12 (racemic) [Example 25, rac-6-(1-(4-(difluoromethyl)benzyl)-1H-indole-7-carboxamido)spiro[3.3] heptane-2-carboxylic Acid] |
| 0.1 | O=C(O)C[C@]12C[C@](NC(=O)c3ccc(F)c4ccn(Cc5ccc(C(F)F)cc5)c34)(C1)C2 [Example 32, 2-(3-(1-(4-(difluoromethyl)benzyl)-4-fluoro-1H-indole-7-carboxamido)bicyclopentan-1-yl)acetic Acid] |
| 0.28 | O=C(O)C[C@]12C[C@](NC(=O)c3ccc(F)c4ccn(Cc5ccc(-c6ccccc6)cc5)c34)(C1)C2 [Example 35, 2-(3-(1-([1,1′-biphenyl]-4-ylmethyl)-4-fluoro-1H-indole-7-carboxamido)bicyclo[1.1.11]pentan-1-yl)acetic Acid] |
| 6 | O=C(NC1CC2(C1)CC(C(=O)O)C2)c1ccnc2ccn(Cc3ccc(C(F)(F)F)cc3)c12 (racemic) [Example 9, rac-6-(1-(4-(trifluoromethyl)benzyl)-1H-pyrrolo[3,2-b]pyridine-7-carboxamido) spiro[3.3]heptane-2-carboxylic Acid] |
| 1.5 | O=C(O)CC12CC(NC(=O)c3cccc4ccn(Cc5ccc(C(F)(F)F)cc5)c34)(C1)C2 [Example 2, 2-(3-(1-(4-(trifluoromethyl)benzyl)-1H-indole-7-carboxamido)bicyclo[1.1.1]pentan-1-yl)acetic Acid] |
| 0.6 | O=C(O)CC12CCC(NC(=O)c3ccc(F)c4ccn(Cc5ccc(C(F)(F)F)cc5)c34)(C1)C2 [Example 28, 2-(4-(4-fluoro-1-(4-(trifluoromethyl)benzyl)-1H-indole-7-carboxamido)bicyclohexan-1-yl)acetic Acid] |
| 0.3 | O=C(NC1CC2(C1)CC(C(=O)O)C2)c1c(F)ccc2ccn(Cc3ccc(C(F)(F)F)cc3)c12 (racemic) [Example 23, rac-6-(6-fluoro-1-(4-(trifluoromethyl)benzyl)-1H-indole-7-carboxamido)spiro heptane-2-carboxylic Acid] |
| 0.1 | O=C(O)C[C@]12C[C@](NC(=O)c3cc(F)cc4ccn(Cc5ccc(C(F)(F)F)cc5)c34)(C1)C2 [Example 33, 2-(3-(5-fluoro-1-(4-(trifluoromethyl)benzyl)-1H-indole-7-carboxamido)bicyclopentan-1-yl)acetic Acid] |
| 3.8 | O=C(O)CC12CCC(NC(=O)c3cccc4ccn(Cc5ccc(C(F)F)cc5)c34)(C1)C2 [Example 26, 2-(4-(1-(4-(difluoromethyl)benzyl)-1H-indole-7-carboxamido)bicyclo[2.1.1]hexan-1-yl)acetic Acid] |
| 0.31 | O=C(NC1CC2(C1)CC(C(=O)O)C2)c1cc(F)cc2ccn(Cc3ccc(C(F)(F)F)cc3)c12 (racemic) [Example 21, rac-6-(5-fluoro-1-(4-(trifluoromethyl)benzyl)-1H-indole-7-carboxamido)spiro heptane-2-carboxylic Acid] |
| 1.5 | O=C(NC12CC(Cc3nnn[nH]3)(C1)C2)c1cccc2ccn(Cc3ccc(C(F)(F)F)cc3)c12 [Example 18, N-(3-((1H-tetrazol-5-yl)methyl)bicyclo[1.1.1]pentan-1-yl)-1-(4-(trifluoromethyl)benzyl)-1H-indole-7-carboxamide] |
| 0.32 | O=C(O)C[C@]12C[C@](NC(=O)c3cccc4cnn(Cc5ccc(-c6ccccc6)cc5)c34)(C1)C2 [Example 36, 2-(3-(1-([1,1′-biphenyl]-4-ylmethyl)-1H-indazole-7-carboxamido)bicyclo[1.1.1]pentan-1-yl)acetic Acid] |
| 2.7 | O=C(NC1CC2(C1)CC(C(=O)O)C2)c1cccc2cnn(Cc3ccc(C(F)(F)F)cc3)c12 (racemic) [Example 12, rac-6-(1-(4-(trifluoromethyl)benzyl)-1H-indazole-7-carboxamido)spiro[3.3]heptane-2-carboxylic Acid] |
| 0.03 | O=C(NC1CC2(C1)CC(C(=O)O)C2)c1ccc(F)c2ccn(Cc3ccc(C(F)F)cc3)c12 (racemic) [Example 31, rac-6-(1-(4-(difluoromethyl)benzyl)-4-fluoro-1H-indole-7-carboxamido)spiro heptane-2-carboxylic Acid] |
| 1.2 | O=C(O)CC12CCC(NC(=O)c3cccc4ccn(Cc5ccc(S(F)(F)(F)(F)F)cc5)c34)(C1)C2 [Example 29, 2-(4-(1-((4-(pentafluorothiol)phenyl)methyl)-1H-indole-7-carboxamido)bicyclohexan-1-yl)acetic Acid] |
| 0.2 | O=C(NC1CC2(C1)CC(C(=O)O)C2)c1cccc2ccn(Cc3ccc(S(F)(F)(F)(F)F)cc3)c12 (racemic) [Example 30, rac-6-(1-((4-(pentafluorothiol)phenyl)methyl)-1H-indole-7-carboxamido)spiro heptane-2-carboxylic Acid] |
